Assay results as given in PubChem BioAssay (NCI).
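Step 1: Grow cells in 96-well plates. Step 2: Expose to compound for 48 hours at 5 concentrations. Step 3: Interpolate endpoints linearly; if unreached, use highest concentration. Here, GI50 denotes the concentration required for 50% inhibition of growth. TGI denotes the concentration required for complete inhibition of growth.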

What was measured:
Experiment in all cases: growth of human tumour cells (NCI), 48 h
786-0 renal = tested on: 786-0 renal
HCT-15 colon = tested on: HCT-15 colon
HOP-92 NSCLC = tested on: HOP-92 NSCLC
KM12 colon = tested on: KM12 colon
NCI-H460 lung = tested on: NCI-H460 lung
NCI-H522 lung = tested on: NCI-H522 lung
OVCAR-4 ovarian = tested on: OVCAR-4 ovarian
SK-MEL-2 melanoma = tested on: SK-MEL-2 melanoma
SN12C renal = tested on: SN12C renal

| SMILES | TGI (786-0 renal) [µM] | TGI (HCT-15 colon) [µM] | TGI (HOP-92 NSCLC) [µM] | TGI (KM12 colon) [µM] | TGI (NCI-H460 lung) [µM] | TGI (NCI-H522 lung) [µM] | TGI (OVCAR-4 ovarian) [µM] | TGI (SK-MEL-2 melanoma) [µM] | TGI (SN12C renal) [µM] | GI50 (786-0 renal) [µM] | GI50 (HCT-15 colon) [µM] | GI50 (HOP-92 NSCLC) [µM] | GI50 (KM12 colon) [µM] | GI50 (NCI-H460 lung) [µM] | GI50 (NCI-H522 lung) [µM] | GI50 (OVCAR-4 ovarian) [µM] | GI50 (SK-MEL-2 melanoma) [µM] | GI50 (SN12C renal) [µM] |
| --- | --- | --- | --- | --- | --- | --- | --- | --- | --- | --- | --- | --- | --- | --- | --- | --- | --- | --- |
| Cc1c(C(=O)CC(=O)C(=O)Nc2cc(Cl)ccc2Cl)[n+](=O)c2ccccc2n1[O-] | > 100 | 90.2 | > 100 | > 100 | 99.5 | 53.6 | > 100 | > 100 | > 100 | – | – | – | – | – | – | – | – | – |
| S=P(N1CCCC1)(N1CC1)N1CC1 | > 100 | > 100 | – | > 100 | > 100 | > 100 | > 100 | > 100 | > 100 | – | – | – | – | – | – | – | – | – |
| CCCCN(CC)c1ncnc2ccc(Br)cc12 | 39.7 | 54.7 | 33.8 | 31.6 | 52.9 | > 100 | > 100 | > 100 | 40.9 | 18.9 | 22.1 | 9.44 | 15.3 | 17.9 | 21 | 22.1 | 29.5 | 18.8 |
| Cc1c(Cl)cccc1NC(=O)/C(Cl)=C(\Cl)C(=O)O | 33.3 | 30 | 31.6 | 31.1 | > 100 | 7.19 | 31.6 | 49.2 | 31.2 | – | – | – | – | – | – | – | – | – |
| COc1cc(C2c3cc4c(cc3[C@@H](OCCN(C)C)C3COC(=O)[C@H]23)OCO4)cc(OC)c1O (stereo not given in full) | 0.663 | 3.12 | 1.55 | 2.75 | 0.441 | 1.7 | 6.33 | 4.03 | 0.606 | – | – | – | – | – | – | – | – | – |
| CCOC(=O)c1c(-c2ccccc2)c(C(OC(c2ccccc2)c2c(-c3ccccc3)c(C(=O)OCC)n3ccccc23)c2ccccc2)c2ccccn12 (stereo not given) | > 100 | > 100 | – | > 100 | > 100 | > 100 | > 100 | > 100 | > 100 | – | – | – | – | – | – | – | – | – |
| COc1cc(C2c3cc4c(cc3[C@@H](N(C)C)[C@H]3COC(=O)C23)OCO4)cc(OC)c1O (stereo not given in full) | > 100 | > 100 | 68.1 | > 100 | > 100 | 18.8 | > 100 | > 100 | > 100 | – | – | – | – | – | – | – | – | – |
| COC(=O)c1ccc(C(=O)OC)c2nc3cc(C)ccc3nc12 | > 100 | > 100 | > 100 | > 100 | > 100 | – | > 100 | > 100 | > 100 | – | – | – | – | – | – | – | – | – |
| CS(=O)(=O)NNS(=O)(=O)c1ccc(Cl)cc1 | > 100 | > 100 | – | > 100 | > 100 | > 100 | > 100 | > 100 | > 100 | – | – | – | – | – | – | – | – | – |
| Nc1ccc(C(=O)CC2(O)C(=O)Nc3c(Cl)cc(Cl)cc32)cc1 (stereo not given) | > 100 | > 100 | > 100 | > 100 | > 100 | > 100 | > 100 | > 100 | > 100 | – | – | – | – | – | – | – | – | – |
| COc1ccc2ccccc2c1CN1CCOCCOCCN(Cc2c(OC)ccc3ccccc23)CCOCCOCC1 | > 46.4 | > 100 | > 70 | > 100 | > 100 | > 89.8 | > 100 | 97.4 | > 100 | – | – | – | – | – | – | – | – | – |
| CC1(O)CCC2(C)C(=O)C1(C)CCC21OCCO1 (stereo not given) | > 100 | > 100 | > 100 | > 100 | > 100 | > 100 | – | > 100 | > 100 | – | – | – | – | – | – | – | – | – |
| CC1=NOC(=O)C1N=Nc1ccc(Br)c(C)c1 (stereo not given) | 38.8 | 41.6 | 34.4 | 78 | 58.6 | – | 29.3 | 30.7 | 48.5 | – | – | – | – | – | – | – | – | – |
| COc1ccccc1NC(=O)C1=C(C)NC(C)=C(C(=O)Nc2ccccc2OC)C1c1ccc(N(C)C)cc1 | > 100 | – | 38.6 | 56.9 | > 100 | 53.7 | 91.2 | 48.2 | > 100 | – | – | – | – | – | – | – | – | – |
| COc1c(Sc2ccccc2)cc(Sc2ccccc2)c2cccnc12 | 65.9 | 49.3 | – | > 100 | 54.5 | – | 61.9 | 42.6 | 97.6 | – | – | – | – | – | – | – | – | – |
| N#Cc1c(C[n+]2ccccc2)c2ccccc2oc1=O | > 100 | > 100 | – | > 100 | > 100 | > 100 | > 100 | > 100 | > 100 | – | – | – | – | – | – | – | – | – |
| CN1C(=O)C2C=CC1C1CCC2N(C)C1=O (stereo not given) | > 100 | > 100 | > 100 | > 100 | – | > 100 | > 100 | > 100 | > 100 | – | – | – | – | – | – | – | – | – |
| CCOC(=O)C1=C(Nc2ccc(Cl)c(Cl)c2)OC/C1=N\NC(=O)Cc1ccccc1 | > 100 | – | – | > 100 | > 100 | > 100 | > 100 | > 100 | > 100 | – | – | – | – | – | – | – | – | – |
| O=c1cc(-c2ccccn2)[nH]c2cc(F)ccc12 | > 100 | – | > 100 | > 100 | > 100 | > 100 | > 100 | – | > 100 | – | – | – | – | – | – | – | – | – |
